From patent publication US20090148546A1, “Methods and compounds fo rthe treatment of obesity and obesity-related disorders” (priority 2005, published 2009)

Tested on: 3T3-L1 cells
Assay: Adipogenesis: differentiation of 3T3-L1 cells into adipocytes, oil red-O staining
Format: cell-based, mouse
Settings: 10 days
Excerpt: It is reported here for the first time that capsaicin is a potent inhibitor of adipogenesis. The accepted model for the process of adipogenesis is the differentiation of mouse-derived 3T3-L1 fibroblasts into adipocytes after treatment with potent inducers such as dexamethasone, isobutyrylmethylxanthine, and insulin. In this model, the adipocytes are identified by the accumulation of lipid droplets in the cytoplasm. We tested the effect of the presence or absence of capsaicin on this process.
NIH 3T3-L1 cells were obtained from American Type Culture Collection (Manassas, Va.). NIH 3T3-L1 cells are a mouse-derived fibroblast cell line that convert into adipocytes under certain conditions. This cell system is well known in the art and is a standard model for the study of adipocyte metabolism. The cells were cultured using well known methods in complete medium (Dulbecco Modified Eagle's Medium (DMEM) (4500 mg glucose/liter) containing 10% fetal bovine serum (FBS)). When the cells were 75% confluent, they were subcultured into multi-well culture plates and allowed to grow to confluency. The differentiation of the cells into adipocytes was initiated by switching to inducing medium (complete medium containing 10 uM dexamethasone, 0.5 mM isobutyrylmethylxanthine, and 10 ug/ml insulin). 1 ug/ml and 0.5 ug/ml doses of capsaicin were added to a number of the culture wells. After 48 hours, the inducing medium was replaced with maintenance medium 1 (complete medium containing insulin (10 ug/ml) with or without capsaicin). After 24 hours, the cells were switched to maintenance medium 2 (complete medium with or without capsaicin). The cultures were followed for up to 10 days for differentiation into adipocytes. The culture medium was replaced every 2 days with a medium of similar composition. The cells were photographed every 2 days to follow their progress. On day 10, the cells were stained with oil red-O (to stain for intracellular lipid) and photographed.

COc1cc(CNC(=O)CCCC/C=C/C(C)C)ccc1O [capsaicin, trans-8-methyl-N-vanillyl-6-nonenamide]
differentiation into adipocytes (0.5 ug/ml and 1 ug/ml): did not become adipocytes | lipid accumulation (oil red-O stain) (0.5 ug/ml, FIG. 2): significant decrease in lipid accumulation | lipid accumulation (oil red-O stain) (1 ug/ml, FIG. 3): significant decrease in lipid accumulation
